The text below walks through data of US11485742B2, “2-azaspiro[3.4]octane derivatives as M4 agonists” (NOVARTIS AG, priority 2019, dated 2022).

Format in all cases: cell-based
Assay [1] concerns the target T1, human cloned CHRM5 receptor (Homo sapiens, UniProt P08912).
T1 construct: expressed in transfected cells; host or cells: CHO (M5_CHO)
T1 sequence (P08912 1-532): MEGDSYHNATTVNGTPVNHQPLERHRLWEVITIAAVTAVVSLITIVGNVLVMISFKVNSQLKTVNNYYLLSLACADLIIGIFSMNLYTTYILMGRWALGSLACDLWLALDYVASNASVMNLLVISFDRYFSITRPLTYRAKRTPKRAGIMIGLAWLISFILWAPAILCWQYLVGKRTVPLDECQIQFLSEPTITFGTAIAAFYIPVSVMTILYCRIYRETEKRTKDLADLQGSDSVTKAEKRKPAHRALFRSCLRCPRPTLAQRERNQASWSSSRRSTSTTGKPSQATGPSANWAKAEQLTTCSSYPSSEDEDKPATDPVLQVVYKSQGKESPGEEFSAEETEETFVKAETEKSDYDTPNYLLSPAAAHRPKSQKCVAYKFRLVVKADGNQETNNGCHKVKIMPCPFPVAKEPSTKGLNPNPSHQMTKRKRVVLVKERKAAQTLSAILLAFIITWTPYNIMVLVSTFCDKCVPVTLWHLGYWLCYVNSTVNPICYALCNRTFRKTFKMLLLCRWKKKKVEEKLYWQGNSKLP
Put plainly: CHRM5 Ca++ Flux Assay (M5_CHO cells, agonist mode). Conditions: for Emax / M5 FDSS PA %: Percent Activity (PA) measured to EC100 of Carbachol; for Emax: read-out: M5 FDSS PA %; for EC50: agonist mode, geometric mean if tested more than once, read-out: M5 FDSS EC50. In short, it runs like this: (§1)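 Agonist-mode calcium mobilisation: compounds, 11 concentrations in triplicate, applied to stable M3_CHO or M5_CHO cells loaded with Ca++ dye, fluorescence followed 3 min. Efficacy expressed against carbachol EC100; EC curves by four-parameter nonlinear regression, geometric mean across independent runs.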

Assay [2] deals with T2, human cloned CHRM3 receptor (Homo sapiens, UniProt P20309).
T2 construct: expressed in transfected cells; host or cells: CHO-K1 (M3_CHO)
T2 sequence (P20309 whole entry): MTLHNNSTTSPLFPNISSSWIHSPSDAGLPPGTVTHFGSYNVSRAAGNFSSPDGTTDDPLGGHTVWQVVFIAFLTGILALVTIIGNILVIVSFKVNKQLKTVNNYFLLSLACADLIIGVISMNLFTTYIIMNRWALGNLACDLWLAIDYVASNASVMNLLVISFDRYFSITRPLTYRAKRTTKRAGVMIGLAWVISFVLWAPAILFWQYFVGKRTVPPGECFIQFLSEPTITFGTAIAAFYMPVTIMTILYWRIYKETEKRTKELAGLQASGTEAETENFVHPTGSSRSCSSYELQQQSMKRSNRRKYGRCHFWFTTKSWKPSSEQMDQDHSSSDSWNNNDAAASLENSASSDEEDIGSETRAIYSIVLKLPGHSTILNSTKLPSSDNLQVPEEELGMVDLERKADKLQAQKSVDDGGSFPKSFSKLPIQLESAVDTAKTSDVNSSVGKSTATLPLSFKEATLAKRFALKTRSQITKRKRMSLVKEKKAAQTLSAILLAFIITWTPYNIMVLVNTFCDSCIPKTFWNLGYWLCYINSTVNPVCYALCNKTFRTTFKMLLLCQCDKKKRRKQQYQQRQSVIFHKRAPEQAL
Nature of the assay: CHRM3 Ca++ Flux Assay (M3_CHO cells, agonist mode). As to conditions: for Emax / M3 FDSS PA %: Percent Activity (PA) measured to EC100 of Carbachol; for Emax: read-out: M3 FDSS PA %; for EC50: agonist mode, geometric mean if tested more than once, read-out: M3 FDSS EC50. In short, it runs like this: as §1

Assay [3] concerns the target T3, Cloned human M1 receptor (CHRM1) (Homo sapiens, UniProt P11229).
T3 construct: expressed in transfected cells; host or cells: HEK293
T3 sequence (P11229 1-460): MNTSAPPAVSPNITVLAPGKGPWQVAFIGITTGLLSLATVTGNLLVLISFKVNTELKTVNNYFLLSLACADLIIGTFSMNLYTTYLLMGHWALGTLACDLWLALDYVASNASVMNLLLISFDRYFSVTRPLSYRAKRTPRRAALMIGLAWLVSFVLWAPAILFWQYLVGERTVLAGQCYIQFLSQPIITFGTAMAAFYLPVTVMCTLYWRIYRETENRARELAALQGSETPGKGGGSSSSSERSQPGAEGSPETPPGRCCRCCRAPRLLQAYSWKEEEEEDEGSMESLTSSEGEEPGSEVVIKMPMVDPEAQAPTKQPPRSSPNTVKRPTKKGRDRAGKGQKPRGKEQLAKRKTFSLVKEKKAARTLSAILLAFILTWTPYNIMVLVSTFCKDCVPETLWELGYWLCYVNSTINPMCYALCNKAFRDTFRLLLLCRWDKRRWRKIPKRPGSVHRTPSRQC
Put plainly: CHRM1 Ca++ Flux Assay (HEK293 M1 cells, agonist mode). As to conditions: for Emax / M1 FDSS PA %: Percent Activity (PA); for Emax: read-out: M1 FDSS PA %; for EC50: geometric mean if tested more than once, read-out: M1 FDSS EC50. The method in brief: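 In agonist mode, compound-induced intracellular Ca++ mobilization was recorded for 3 min by fluorescent imager. The cells were HEK293 stably expressing cloned human CHRM1, in Ca/Mg-free HBSS with 20 mM HEPES. Triplicate 11-point dose-responses were fitted by four-parameter regression and normalized to the carbachol EC100 response.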

Each structure is given as a SMILES string.

`COCCOc1ccc(F)cc1C1CCN([C@@H]2COC3(C2)CN(c2nncs2)C3)CC1` [Example 5S, (S)-7-(4-(5-fluoro-2-(2-methoxyethoxy)phenyl)piperidin-1-yl)-2-(1,3,4-thiadiazol-2-yl)-5-oxa-2-azaspiro[3.4]octane]: the Emax in assay [1] came to 0%; in assay [2], 0%; in assay [3], 87%. The values for the EC50 in assay [1], in assay [2] and in assay [3] were more than 25 µM, more than 25 µM and 761 nM, respectively.

Turning to `CC(C)(O)[C@H]1C[C@H](Oc2ccc(F)cc2C2CCN([C@@H]3COC4(C3)CN(c3nnco3)C4)CC2)C1` (single isomer, unassigned) [Example 2W, 2-((1S,3r)-3-(2-(1-((S)-2-(1,3,4-oxadiazol-2-yl)-5-oxa-2-azaspiro[3.4]octan-7-yl)piperidin-4-yl)-4-fluorophenoxy)cyclobutyl)propan-2-ol or 2-((1R,3s)-3-(2-(1-((S)-2-(1,3,4-oxadiazol-2-yl)-5-oxa-2-azaspiro[3.4]octan-7-yl)piperidin-4-yl)-4-fluorophenoxy)cyclobutyl)propan-2-ol], in assay [1], the “M5 FDSS PA %” value is given as 0% and the half-maximal effective concentration (EC50) (commonly the concentration giving half of the maximal effect) was more than 25 µM. In assay [2], the “M3 FDSS PA %” value was 0% and the EC50 was more than 25 µM. For the same molecule, in assay [3], the “M1 FDSS PA %” value is on record as 66% and the EC50 worked out at 3440 nM.

For `Fc1ccc(C2CCOCC2)c(C2CCN([C@@H]3COC4(C3)CN(c3nnco3)C4)CC2)c1` [Example 3D, (S)-7-(4-(5-fluoro-2-(tetrahydro-2H-pyran-4-yl)phenyl)piperidin-1-yl)-2-(1,3,4-oxadiazol-2-yl)-5-oxa-2-azaspiro[3.4]octane], the Emax in assay [1] turned out to be 0%; in assay [2], 0%; in assay [3] it was 75%. For the same molecule, the EC50 in assay [1] was more than 25 µM; in assay [2] it was more than 25 µM; in assay [3], 1410 nM.

With `Fc1cc(OCC2(F)COC2)c(C2CCN([C@@H]3COC4(C3)CN(c3ncco3)C4)CC2)cc1F` [Example 4P, (S)-7-(4-(4,5-difluoro-2-((3-fluorooxetan-3-yl)methoxy)phenyl)piperidin-1-yl)-2-(oxazol-2-yl)-5-oxa-2-azaspiro[3.4]octane], the Emax in assay [1] was determined as 0%; in assay [2], 0%; in assay [3], 89%. The EC50 in assay [1] is more than 25 µM; in assay [2] it was more than 25 µM; in assay [3], 334 nM.

`Fc1cc(F)c(OC2CC3(COC3)C2)c(C2CCN([C@@H]3COC4(C3)CN(c3nnco3)C4)CC2)c1` [Example 2AA, (S)-7-(4-(2-((2-oxaspiro[3.3]heptan-6-yl)oxy)-3,5-difluorophenyl)piperidin-1-yl)-2-(1,3,4-oxadiazol-2-yl)-5-oxa-2-azaspiro[3.4]octane]: the results for the Emax in assay [1], in assay [2] and in assay [3] were 0%, 0% and 30%, respectively. Further, the EC50 in assay [1] is more than 25 µM; in assay [2] it was more than 25 µM; in assay [3] it was 6660 nM.

As for `OC[C@H]1C[C@H](Oc2ccc(F)cc2C2CCN([C@@H]3COC4(C3)CN(c3nnco3)C4)CC2)C1` (single isomer, unassigned) [Example 2II, ((1S,3r)-3-(2-(1-((S)-2-(1,3,4-oxadiazol-2-yl)-5-oxa-2-azaspiro[3.4]octan-7-yl)piperidin-4-yl)-4-fluorophenoxy)cyclobutyl)methanol or ((1R,3s)-3-(2-(1-((S)-2-(1,3,4-oxadiazol-2-yl)-5-oxa-2-azaspiro[3.4]octan-7-yl)piperidin-4-yl)-4-fluorophenoxy)cyclobutyl)methanol], in assay [1], the “M5 FDSS PA %” value was 0% and the concentration giving a half-maximal response (EC50) was more than 25 µM. For the same molecule, in assay [2], the “M3 FDSS PA %” value is given as 0% and the half-maximal effective concentration (EC50) was more than 25 µM. In addition, in assay [3], the “M1 FDSS PA %” value was 107% and the EC50 worked out at 4050 nM.

Regarding `CC(C)(O)COc1ccc(F)cc1C1CCN([C@@H]2COC3(C2)CN(c2ncns2)C3)CC1` [Example 5C, (S)-1-(2-(1-(2-(1,2,4-thiadiazol-5-yl)-5-oxa-2-azaspiro[3.4]octan-7-yl)piperidin-4-yl)-4-fluorophenoxy)-2-methylpropan-2-ol], the Emax is 4% in assay [1], 0% in assay [2] and 60% in assay [3]. Further, the EC50 is more than 25 µM in assay [1], more than 25 µM in assay [2] and 1600 nM in assay [3].

For the molecule `Fc1ccc(OC2CCOCC2)c(C2CCN([C@@H]3COC4(C3)CN(c3nncs3)C4)CC2)c1` [Example 5J, (S)-7-(4-(5-fluoro-2-((tetrahydro-2H-pyran-4-yl)oxy)phenyl)piperidin-1-yl)-2-(1,3,4-thiadiazol-2-yl)-5-oxa-2-azaspiro[3.4]octane], the figures for the Emax in assay [1], in assay [2] and in assay [3] were 0%, 0% and 6%, respectively. The half-maximal effective concentration (EC50) is more than 25 µM in assay [1], more than 25 µM in assay [2] and 1200 nM in assay [3].

For `COCCOc1ccc(F)cc1C1CCN([C@@H]2COC3(C2)CN(c2ncco2)C3)CC1` [Example 4L, (S)-7-(4-(5-fluoro-2-(2-methoxyethoxy)phenyl)piperidin-1-yl)-2-(oxazol-2-yl)-5-oxa-2-azaspiro[3.4]octane], the values for the Emax in assay [1], in assay [2] and in assay [3] were 0%, 0% and 66%, respectively. Also, the EC50 in assay [1] is more than 25 µM; in assay [2] it was more than 25 µM; in assay [3] it was 336 nM.

In the case of `Fc1cc(OC2COC2)c(C2CCN([C@@H]3COC4(C3)CN(c3ncco3)C4)CC2)cc1F` [Example 4Q, (S)-7-(4-(4,5-difluoro-2-(oxetan-3-yloxy)phenyl)piperidin-1-yl)-2-(oxazol-2-yl)-5-oxa-2-azaspiro[3.4]octane], the Emax in assay [1] was 0%; in assay [2], 0%; in assay [3], 71%. The 50% effective concentration (EC50) in assay [1] is more than 25 µM; in assay [2], more than 25 µM; in assay [3] it was 294 nM.

For the molecule `Fc1ccc(OC[C@H]2COCCO2)c(C2CCN([C@@H]3COC4(C3)CN(c3ncco3)C4)CC2)c1` [Example 4B, (S)-7-(4-(2-(((R)-1,4-dioxan-2-yl)methoxy)-5-fluorophenyl)piperidin-1-yl)-2-(oxazol-2-yl)-5-oxa-2-azaspiro[3.4]octane], the Emax came to 0% in assay [1], 0% in assay [2] and 117% in assay [3]. Moreover, the concentration for a half-maximal effect (EC50) was more than 25 µM in assay [1], more than 25 µM in assay [2] and 424 nM in assay [3].

Regarding `O[C@H]1CC[C@@H](c2ccc(F)cc2C2CCN([C@@H]3COC4(C3)CN(c3nnco3)C4)CC2)CC1` (single isomer, unassigned) [Example 3I, (1R,4s)-4-(2-(1-((S)-2-(1,3,4-oxadiazol-2-yl)-5-oxa-2-azaspiro[3.4]octan-7-yl)piperidin-4-yl)-4-fluorophenyl)cyclohexan-1-ol or (1S,4r)-4-(2-(1-((S)-2-(1,3,4-oxadiazol-2-yl)-5-oxa-2-azaspiro[3.4]octan-7-yl)piperidin-4-yl)-4-fluorophenyl)cyclohexan-1-ol], in assay [1], the “M5 FDSS PA %” value came to 0% and the EC50 is more than 25 µM. In addition, in assay [2], the “M3 FDSS PA %” value is recorded as 0% and the 50% effective concentration (EC50) is more than 25 µM. In assay [3], the “M1 FDSS PA %” value worked out at 76% and the concentration giving a half-maximal response (EC50) came out at 3310 nM.

As to `CC(C)(O)COc1ccc(F)cc1C1CCN([C@@H]2COC3(C2)CN(c2ncco2)C3)CC1` [Example 4K, (S)-1-(4-fluoro-2-(1-(2-(oxazol-2-yl)-5-oxa-2-azaspiro[3.4]octan-7-yl)piperidin-4-yl)phenoxy)-2-methylpropan-2-ol], the Emax came out at 0% in assay [1], 0% in assay [2] and 60% in assay [3]. Besides, the half-maximal effective concentration (EC50) in assay [1] is more than 25 µM; in assay [2] it was more than 25 µM; in assay [3], 444 nM.
